OC(Cn1cncn1)(Cn1cncn1)c1ccc(F)cc1F
solubility (mole fraction)
Conditions	in 1,4-dioxane	in THF	in chloroform	in ethanol	in methanol	in n-butanol	in n-propanol
298.15 K	0.0124	0.0121	0.0135	0.011	0.0141	0.0058	0.0115
303.15 K	0.0165	0.0155	0.0136	0.0147	0.0193	0.0066	0.0127
308.15 K	0.0194	0.0197	0.0139	0.017	0.0286	0.008	0.0148
313.15 K	0.0219	0.0225	0.0148	0.0231	0.0422	0.0102	0.0175
318.15 K	0.0257	0.0273	0.016	0.0284	0.06	0.0132	0.021
323.15 K	0.0304	0.0331	0.0181	0.0354	0.088	0.016	0.0278

From BigSolDB 2.1
